6 compounds from BindingDB's records for doi:10.1021/jm00080a018 (Toyo Jozo, 1992) can be followed below.

Molecules are shown by their SMILES. pIC50: −log10 of the molar value. A value given as a limit tells only on which side of the number the result lay.

This assay has as its target Adenosylhomocysteinase (Oryctolagus cuniculus). Nature of the assay: Inhibitory effect against S-adenosyl-L-homocysteine hydrolase of rabbit erythrocyte.

As for `Nc1ncnc2c1ncn2[C@@H]1C=C(CCl)[C@@H](O)[C@H]1O`, the negative-log IC50 (pIC50) was < 4.45.

For the compound `C=CC1=C[C@@H](n2cnc3c(N)ncnc32)[C@H](O)[C@@H]1O`, the pIC50 was < 4.41.

For `CSCC1=C[C@@H](n2cnc3c(N)ncnc32)[C@H](O)[C@@H]1O`, the pIC50 is < 4.47.

For `CC1=C[C@@H](n2cnc3c(N)ncnc32)[C@H](O)[C@@H]1O`, the pIC50 is < 4.39.

For the compound `Nc1ncnc2c1ncn2[C@@H]1C=C(CF)[C@@H](O)[C@H]1O`, the pIC50 is < 4.42.

For `COCC1=C[C@@H](n2cnc3c(N)ncnc32)[C@H](O)[C@@H]1O`, the negative logarithm of the IC50 (pIC50) is < 4.44.

Usually pIC50 stands for the IC50 on a negative log10 scale, so that one unit is a factor of ten. A high value points to a low IC50.
